Data taken from patent US20210386709A1, “COMPOSITIONS AND METHODS FOR SUPPRESSING MSUT2” (United States Government As Represented By The Department …, priority 2020, published 2021).

Molecular target: T1, MSUT2 ZF (Homo sapiens, UniProt Q6PJT7)
T1 construct: Targeted construct consisted of the c-terminal end (dark blue and amino acids 601-736) of MSUT2; made in house; host or cells: E. coli BL21 (DE3)
T1 sequence (Q6PJT7 601-736): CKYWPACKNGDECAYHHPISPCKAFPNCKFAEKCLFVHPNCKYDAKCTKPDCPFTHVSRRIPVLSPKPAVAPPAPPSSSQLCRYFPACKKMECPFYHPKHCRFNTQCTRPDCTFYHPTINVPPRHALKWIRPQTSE
Test: Fluorescence polarization assay of FAM-poly(A) RNA:MSUT2 ZF binding
Conditions: by FP assay; read-out: Ki for MSUT2 by FP assay
Description: Fluorescence Polarization Assay. […] 2 μL of compound was transferred for a final concentration of 10 μM. […] Fluorescence polarization was calculated by first subtracting background from a buffer-only control well and then using the equation
Results and Discussion. A high-throughput fluorescence polarization assay for inhibition of poly(A):MSUT2 RNA interaction. […] In order to screen potential inhibitors of MSUT2 RBP and RNA by FP, fluorescent FAM (fluorescein amidite)-labeled poly(A)15 RNA (FAM-RNA) and recombinant MSUT2 ZF (zinc finger) protein expressing constructs were generated (FIG. 7a). […] Inhibition of the interaction results in unbound FAM-RNA tumbling at a relatively rapid rate and emitting non-polarized light (FIG. 7b).
To determine the concentrations of both MSUT2 ZF protein and FAM-RNA probe useful in the methods described herein, a two dimensional titration of protein and RNA concentrations in 96-well format was performed. […] Next, the binding constant between MSUT2 ZF and FAM-RNA was determined by holding FAM-RNA constant at 10 nM while increasing MSUT2 ZF concentration.
Identification and validation of MSUT2 inhibitory compounds from NIHCC library. […] IC50 of each of the previous 8 compounds was determined for PABPN1 using fluorescence polarization (FIG. 11), and a specificity ratio determined (Table 3). An Alpha Screen (AS) assay was developed as an orthogonal screen. Briefly, in this screen, biotinylated RNA binds streptavidin-coated donor beads, while GST-MSUT2 ZF binds glutathione-coated acceptor beads. When donor beads and acceptor beads are brought within close proximity of one another, laser excitation leads to fluorophore emission of the acceptor bead via excited singlet oxygen activating chemiluminescers in the acceptor beads. […] Toxicity of these compounds in a HEK cell model was determined using a standard Promega Cell Titer Glo assay.
Fluorescence Polarization Assay. […] of stock compound was transferred yielding 10 μM final concentration. […] Fluorescence polarization was calculated by first subtracting background from a buffer-only control well and then using the equation

O=c1c2ccccc2[se]n1-c1ccccc1 [Ebselen]
Ki: 1020 nM
